Assay results taken from PubChem BioAssay AID540271 (Broad Institute, 2011).
The source made the active and inactive calls. No rule for the calls is given here.

Tested on: S. cerevisiae expressing PfHSP40, growth rescue, plate reader
Assay: Yeast growth rescue from Plasmodium falciparum HSP40 toxicity, dose response confirmatory, plate reader (AID 540271);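 also: yeast growth read after three days of incubation at 30 °C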

| SMILES | AC50 |
| --- | --- |
| Oc1ccccc1-c1nnc(SCCN2CCOCC2)n1Cc1ccccc1 | 5.94 µM |
| CCOC(=O)c1c(C)oc2c1C(=O)c1ccccc1C2=O | 6.76 µM |
| Oc1c(Cl)c(Cl)c(Cl)c(Cl)c1Cl | 2.89 µM |
| Cn1ccsc1=NC(=O)c1ccc([N+](=O)[O-])o1 | > 12 µM (inactive) |
| CCC(=O)NC(c1ccco1)c1cc(Cl)c2cccnc2c1O (centres undefined) | 2.99 µM |
| COC(=O)C1=NN(C(=O)c2cccc(Br)c2)C(O)(c2ccc(Cl)cc2)C1 (centres undefined) | 5.82 µM |
| CC(C)=CCc1c(O)cc(O)c2c1OC(c1ccc(O)cc1)CC2=O (centres undefined) | 5.76 µM |
| O=C(c1ccc(-c2ccccc2)cc1)C1CCCN(C(=O)c2cncs2)C1 (centres undefined) | 5.93 µM |
| CC(C)CSc1n[nH]c(=S)s1 | 6.48 µM |
| CC1=CC(=O)C=C(C)C1=NOS(=O)(=O)c1ccccc1 | 4.15 µM |
| O=C1CC(O)(C(F)(F)F)Oc2c1ccc1ccccc21 (centres undefined) | 5.78 µM |
| O/N=C/c1cc(Br)ccc1OCc1ccccc1F | 4.76 µM |
| CCOc1ccc(-n2c(O)c(/C=N/NC(=O)C3COc4ccccc4O3)c3ccccc3c2=O)cc1 (centres undefined) | 4.11 µM |
| Cn1nnnc1N=N/C(=N/Nc1ccccc1)c1ccccc1 | 1.85 µM |
| Cc1ccccc1C(=O)NNC(=S)NC(=O)c1ccc(Cl)cc1Cl | 2.36 µM |
| CCOC(=O)c1ccc(NC(=O)CC2OCCN(CC)C2=O)cc1 (centres undefined) | 4.89 µM |
| Cc1ccccc1OCC(O)Cn1c2ccccc2c2ccccc21 (centres undefined) | 4.74 µM |
| C=C1C(=O)C23CCC4C(C)(C(=O)OC)CCCC4(C)C2CCC1(O)C3 (centres undefined) | 11.6 µM |
| O/N=C(\c1ccc(Cl)cc1Cl)c1ncc(C(F)(F)F)cc1Cl | 9.27 µM |
| C=CCNC(=S)N1CCC(Cc2ccccc2)CC1 | 11.3 µM |

| SMILES | AC50 |
| --- | --- |
| CCCCCCCCCCOC(=O)Cn1c(COc2ccccc2OC)[n+](C)c2ccccc21 | 6.39 µM |
| COc1cnc(-c2ccccn2)nc1Sc1ccc(C)cc1 | 5.97 µM |
| O=C(Nc1nnc(-c2ccccc2)o1)c1ccc(Cl)cc1 | 1.84 µM |
| CCc1ccc(OCc2n[nH]c(=S)n2Cc2ccccc2)cc1 | 5.29 µM |
| Cc1ccc(-c2c3c(nc4sc(C(N)=O)c(N)c24)CCCC3)o1 | 6.13 µM |
| OCCN(CCO)c1cc2c3ccccc3ccc2c2ccccc12 | 5.56 µM |
| Cc1ccc(-n2nnnc2C(Cl)c2nnnn2-c2ccc(C)cc2)cc1 | 3.4 µM |
| CCc1ccc(C(C)NC(=S)NC2CCCCC2)cc1 (centres undefined) | 7.1 µM |
| O=C(CSc1ccc(-c2ccccn2)nn1)NCc1ccccc1 | 6.96 µM |
| CCOC(=O)c1cnc(-n2nc(C)cc2C)nc1NC1CCCC1 | 7.65 µM |
| CC(NC(=S)NC1CCC(C(C)(C)C)CC1)c1ccccc1 (centres undefined) | 6.86 µM |
| CSC1SCC2C(=O)N(C)C(C(C)C)C(=O)OCC(NC(=O)c3cnc4ccccc4n3)C(=O)NC(C)C(=O)N(C)C1C(=O)N(C)C(C(C)C)C(=O)OCC(NC(=O)c1cnc3ccccc3n1)C(=O)NC(C)C(=O)N2C (centres undefined) | > 12 µM (inactive) |
| O=C(N/N=C/c1cc(Br)ccc1O)c1ccccc1Cl | 4.83 µM |
| O=Nc1c(O)n(Cc2ccc(Cl)c(Cl)c2)c2ccccc12 | 6.59 µM |
| O=c1c(-c2cccc3ccccc23)[n+]([O-])c2ccccc2n1O | 10.4 µM |
| CCn1nc(/C=C/c2ccccc2)nc2c(=O)n(C)c(=O)nc1-2 | 2.36 µM |
| COc1ccc(-n2nc(C#N)c(Cl)cc2=O)cc1 | 7.48 µM |
| CC(=O)C1=C(c2cccc([N+](=O)[O-])c2)N(C(C)=O)n2c(C)nnc2S1 | 2.7 µM |
| CCN(CC)c1ccc(/C=C/c2ccc3ccc(OC)cc3[n+]2CC)cc1 | 5.78 µM |
| Clc1ccc(OCc2nc(-c3ccncc3)no2)c(Br)c1 | 6.2 µM |

| SMILES | AC50 |
| --- | --- |
| CCCCCCCCCCOC(=O)Cn1c(COc2ccccc2)[n+](C)c2ccccc21 | > 12 µM (inactive) |
| CC(C)(C)c1ccc(Oc2ccc(N)cc2)cc1 | 7.32 µM |
| C[C@@]12CCC3[C@@](CCC4[C@@]3(C)CCC[C@@]4(C)C(=O)NCc3ccccc3)(CC1=O)C2 (some centres undefined) | 1.43 µM |
| CNC(=S)Nc1ccc(C23CC4CC(CC(C4)C2)C3)cc1 | 7.25 µM |
| COC(=O)c1cccc2c1-c1ccccc1/C2=N/O | 4.95 µM |
| Oc1ccc(Br)cc1/C=N/Nc1ccccn1 | 5.39 µM |
| Cn1cnc([N+](=O)[O-])c1S(=O)(=O)Oc1ccc(Cl)cc1 | 6.4 µM |
| CCCSC(=S)c1c(C)[nH]n(-c2ccccc2)c1=O | 5.46 µM |
| CC(C)(C)c1ccc(C(=O)NC(=S)NNC(=O)c2cccs2)cc1 | 1.89 µM |
| Cc1nc(SCc2ccc(OCCC(C)C)cc2)n[nH]1 | 3.08 µM |
| Cc1ccc(CCNc2ncnc(Cl)c2N)cc1 | 4.48 µM |
| COc1ccc(C(=O)NC(=S)NNC(=O)CCc2ccccc2)cc1 | 5.29 µM |
| CCCn1c(=O)c(C(=O)NCc2ccc(OC)c(OC)c2)c(O)c2ccccc21 | 2.32 µM |
| Cc1ccc(C(=O)C(SC(C)(C)C)n2cncn2)cc1 (centres undefined) | 5.78 µM |
| Clc1ccc(-c2n[nH]c3c2CCC3)cc1Cl | 5.64 µM |
| Cc1ccc(NC2=C(NC(=O)c3ccccc3)C(=O)c3ccccc3C2=O)cc1Cl | 7.65 µM |
| COc1cc2c(c(OC)c1OC)-c1ccc(O)c(=O)cc1[C@@H](N)CC2 | 2.52 µM |
| Clc1ccccc1CN(Cc1ccco1)Cc1nnnn1C1CCCC1 | 5.17 µM |
| Cc1cccc(N2CCN(C(=O)C3COc4ccccc4O3)CC2)c1C (centres undefined) | 6.72 µM |
